From patent publication US10280401B2, “Method of measuring inhibition of phosphatidylcholine export transport and/or formation activity” (Biotranex, LLC, priority 2015, dated 2019)

Assays:
[1] = test system: PC export transport activity; assay: Inhibition of PC export transport activity in human hepatocytes (d9-choline, taurocholic acid, LC/MS/MS); assay type: cell-based; conditions: Hepatocyte, 100 μg/mL d9-choline, 5 mM taurocholic acid, 2 hours; for inhibition at 1 µM: drug 1 μM; for inhibition at 10 µM: drug 10 μM; for inhibition at 100 µM: drug 100 μM
Protocol: (§1) The effect of a test agent in terms of percentage (%) of inhibition on PC export transport and/or formation activity is determined by the following equation: […]
(§2) Fifty mL InVitroGRO HT medium was pre-warmed in a 37° C. water bath. A vial of hepatocyte was removed from a liquid N2 tank and quickly warmed in a 37° C. water bath by holding in hand with slow rotation. As soon as the edge of the frozen cells was separated from the wall of the vial, the frozen cells were poured into the pre-warmed HT medium and the remaining cells in the vial were collected using pipette. The tube was centrifuged at 50 g, 25° C. for 5 minutes, the supernatant was removed and the cell pellet was re-suspended in 8 mL of pre-warmed Williams E buffer, the cell numbers were counted in a hemocytometer. […] The cells were counted in 0.4% Trypan blue (80 μL Williams E buffer+10 μL Trypan blue stock+10 μL cells). The hepatocyte concentration was adjusted with Williams E buffer to meet the objectives of various experiments.
(§3) LC/MS/MS assays: Liquid chromatography was carried out using a Shimadzu (Columbia, Md.) HPLC system consisting of an SCL-10 Avp system controller, two LC-10 ADvp pumps, a CTC HTC PAL autosampler, a Shimadzu SPD-10 ADvp UV detector and an automated switching valve. The switching valve was used to divert the column effluent to either waste or to the MS instrument. The Shimadzu HPLC system was used for sample injection and analyte separation. Each sample was loaded onto a reverse phase column, Phenomenex (Torrance, Calif.) Luna C85μ2 mm×50 mm. The column chamber's temperature was ambient. The initial HPLC mobile phase conditions used for separation and elution of analytes comprised 50% acetonitrile in water containing 0.1% formic acid (A) and isopropanol:acetonitrile (9:1) (B). The flow rate was 0.5 mL/min. The amount of B in the mobile phase was ramped linearly up to 62% over a 0.5-minute period followed by a slow increase to 63% B in 4.5 minutes, then a rapid increase to 95% B in 0.1 min. After holding at 95% B for 2.3 minutes, the mobile phase was reset to the initial conditions in 0.1 minute. The analytical column was equilibrated with the starting mobile phase for 2.5 minutes. The total run time for each sample analysis was approximately 10 minutes.
(§4) The HPLC elute was injected into an AB Sciex AP14000 LC/MS/MS system (Framingham, Mass.) equipped with a Turbo IonSpray source set with a desolvation temperature of 450° C. Nitrogen was used as curtain gas, nebulizer gas, heater gas, and collision gas. Data for PC was acquired in the positive ion mode using multiple reaction monitoring methods (MRM). The ion transitions of the MRM method for specific detection of PC species were developed in standard fashion. Ionspray voltage was set at 4000 V and the collision gas (CAD) set at 6. Declustering potential and collision energy was set at 50 and 42 respectively for PC. The PC species were monitored using the following transitions: 768→193, 770→193, 796→193, 798→193, 792→193, 794→193, 816→193. (S)-(+)-Methyl 2-(4,5,6,7-tetrahydrothieno[3,2-c]pyridin-5-yl)-2-(2-chlorophenyl)acetate hydrogensulfate was used as an internal standard with the following ion transition: 322.2→152.1. Propane-1-sulfonic acid {3-[5-(4-chlorophenyl)-1H-pyrrolo[2,3-b]pyridine-3-carbonyl]-2,4difluoro-phenyl}-amide was also used as an internal standard with the following ion transition: 490.1→383.1.
(§5) Data analysis: Extracellular concentrations of PC were determined by LC/MS/MS MRM analysis of the 4000 RPM supernatant fractions post-incubation. Cellular concentrations of PC were determined by LC/MS/MS MRM of the extracts of hepatocytes post incubation. PC export transport and/or formation activity and test agent percent inhibition were calculated using the following equations: […]

[2] = test system: PC export transport activity; assay: Inhibition of PC export transport activity in rat hepatocytes (d9-choline, taurocholic acid, LC/MS/MS); assay type: cell-based; conditions: Hepatocyte, 100 μg/mL d9-choline, 5 mM taurocholic acid, 2 hours; for inhibition at 1 µM: drug 1 μM; for inhibition at 10 µM: drug 10 μM; for inhibition at 100 µM: drug 100 μM
Protocol: as §1, §2, §3, §4, §5

SMILES	inhibition at 1 µM [1] [%]	inhibition at 10 µM [1] [%]	inhibition at 100 µM [1] [%]	inhibition at 1 µM [2] [%]	inhibition at 10 µM [2] [%]	inhibition at 100 µM [2] [%]
O=C(O)CCCC[C@@H]1SC[C@@H]2NC(=O)N[C@@H]21 [Biotin, biotin]	≤ 30	≤ 30	≤ 30	≤ 30	≤ 30	≤ 30
CN(C)CCCN1c2ccccc2Sc2ccc(Cl)cc21 [Chlorpromazine, chlorpromazine]	≤ 30	30 to 70	≥ 70	30 to 70	≥ 70	≥ 70
Clc1ccccc1C(c1ccccc1)(c1ccccc1)n1ccnc1 [Clotrimazole, clotrimazole]	–	–	–	≤ 30	≤ 30	≥ 70
COC1=CC(=O)C[C@@H](C)[C@]12Oc1c(Cl)c(OC)cc(OC)c1C2=O [Griseofulvin, griseofulvin]	–	–	–	≤ 30	30 to 70	≥ 70
CC(=O)N1CCN(c2ccc(OCC3COC(Cn4ccnc4)(c4ccc(Cl)cc4Cl)O3)cc2)CC1 (stereo not drawn) [Ketoconazole, ketoconazole]	≤ 30	30 to 70	≥ 70	30 to 70	30 to 70	≥ 70
CC(C)(S)[C@@H](N)C(=O)O [Penicillamine, penicillamine]	≤ 30	≤ 30	≤ 30	–	–	–
CC1=C(CC(=O)O)c2cc(F)ccc2/C1=C\c1ccc([S+](C)[O-])cc1 (stereo not drawn) [Sulindac, sulindac]	–	–	–	≤ 30	30 to 70	≥ 70
Cc1c(C)c2c(c(C)c1O)CCC(C)(COc1ccc(CC3SC(=O)NC3=O)cc1)O2 (stereo not drawn) [Troglitazone, troglitazone]	≤ 30	30 to 70	≥ 70	–	–	–
